From US20240287054A1, “COMPOUNDS THAT BIND NON-CANONICAL G-QUADRUPLEX STRUCTURES AND METHODS OF MAKING AND USING THE SAME” (The U.S.A., as Represented by the Secretary, Department of …, priority 2021, published 2024)

Assays:
N-Myc protein = assay: Western blot of N-Myc protein in NBEB cells; type: cell-based; settings: 48 h, Western blotting
Experimental: To examine the effects of G4-binding compounds on NBEB cells, live-cell imaging was performed using an Incucyte interface (described below). NBEB (5K/well), cells were seeded into 96-well plates in triplicate, treated with compound MY-8 at various concentrations (0-45 μM), and cultured until control wells reached confluence. For RT-qPCR and western blotting, NBEB (300K) cells were treated with MY-8 in 6-well dish for 48 h. To examine the time-dependent decrease in MYCNOs expression, cells were treated with 22.5 μM and 45 μM MY-8 and analyzed at various times (0, 4, 24, 48, 72 and 96 h). To validate cell viability, a Trypan Blue exclusion test was performed following treatment at 48 h and 96 h post treatment and the proportion of live versus dead cells was calculated using a hemocytometer.
Protein assay. Forty-eight hours post-MY-8 treatment in 6-well plates, single copy MYCN cells were lysed directly in the plate with Radioimmunoprecipitation assay buffer (Beyotime, China), pelleted, and chilled at −80° C. […] Total protein concentrations were determined using a Bradford Assay using the Bradford reagent (Beyotime, China). […] Chemiluminescent signal was detected using Clarity™ Western ECL Substrate (Bio-Rad, USA) or Supersignal™ West Femto Maximum Sensitivity Substrate (ThermoFisher Scientific, USA) with a ChemiDoc gel imaging system (Bio-Rad, USA).

[1] = test system: MYCNOS001 and MYCNOS002 transcripts; assay: qRT-PCR of MYCNOS transcripts in NBEB cells; type: cell-based
Experimental: To examine the effects of G4-binding compounds on NBEB cells, live-cell imaging was performed using an Incucyte interface (described below). NBEB (5K/well), cells were seeded into 96-well plates in triplicate, treated with compound MY-8 at various concentrations (0-45 μM), and cultured until control wells reached confluence. […] To validate cell viability, a Trypan Blue exclusion test was performed following treatment at 48 h and 96 h post treatment and the proportion of live versus dead cells was calculated using a hemocytometer.
Quantitative RT-PCR. Total RNA was extracted from NBEB cells according to manufacturer's instructions (RNeasy Plus Mini Extraction kit (#74134) (Qiagen, CA). RNA (1 μg) was reverse transcribed into cDNA using the cDNA synthesis High-Capacity RNA-to-cDNA™ Kit. Quantitative PCR was performed using Fast SYBR™ Green Master Mix according to the manufacturer's protocol. Beta-actin was used as a housekeeping gene. Relative expression was calculated using the 2(−ΔCt) method. The qPCR primer sequences can be found in supplementary materials.

NBEB cells = assay: Incucyte live cell imaging of cell confluence; type: cell-based; settings: 4-day measurement after single treatment, 0-45 μM
Experimental: Cell lines and cell culture. The neuroblastoma cell line NBEB (Single Copy MYCN) cells were used to evaluate the efficacy of the MYCN/MYCNOs G-quadruplex binding molecules. NBEB came from stocks in Pediatric Oncology Branch, National Cancer Institute, National Institutes of Health, Bethesda, MD and have been […]. Cells were cultured in RPMI-1640, supplemented with 10% FBS (Atlanta Biologicals, Atlanta), 2 mM glutamine (Life Technologies, New York), and antibiotics (penicillin 100 μg/mL, streptomycin 100 μg/mL; Life Technologies, New York) at 37° C. in a 5% CO2 incubator.
To examine the effects of G4-binding compounds on NBEB cells, live-cell imaging was performed using an Incucyte interface (described below). […] To examine the time-dependent decrease in MYCNOs expression, cells were treated with 22.5 μM and 45 μM MY-8 and analyzed at various times (0, 4, 24, 48, 72 and 96 h). To validate cell viability, a Trypan Blue exclusion test was performed following treatment at 48 h and 96 h post treatment and the proportion of live versus dead cells was calculated using a hemocytometer.
Incucyte live cell imaging system. […] Incucyte measured cell confluence from pre-defined processing definitions for NBEB NB cells. […]

MYCN G4 DNA = assay: SPR competitive binding assay on MYCN G4; set-up: species or system human
Experimental: Based on this unexpected observation, and without being bound to a single theory, it currently is believed that the two compounds might bind to MYCN G4 on different sites. To investigate, a competitive assay on SPR was performed by injecting the compounds step-wise in a designated order or injecting a mixture (Brooks et al., Drug Discovery Today 2014, 19:1040-1044; Spurny et al., PNAS 112:E2543-2552). […] Next, TMPyP4, a classical stacking G4-binder (Seenisamy, JACS 2004, 126:8702-8709), was also tested together with MY-1. […] In addition, a CD melting assay was also performed using either MY-1 or a mixture of two hits (1 and MY-1).

[2] = NBEB cells, 24, 36, 48 h, higher concentrations

SMILES | levels of N-Myc protein (N-Myc protein) | MYCNOS001 mRNA level [1, 2] | MYCNOS002 mRNA level [1, 2] | onset of MYCNOS002 decrease ([1]; NBEB cells, time course) | NBEB cell growth (cell confluence) (NBEB cells) | binding level of MY-1 after injection of 1 (MYCN G4 DNA; 100 μM of 1 followed by 100 μM of MY-1, also 500 μM of 1) | SPR binding signal on addition of MY-1 to TMPyP4 solution (MYCN G4 DNA; MY-1 100 μM and 250 μM in TMPyP4 solution)
COc1ccc(-c2noc(-c3ccc(NCCCN4CCCCCC4)nn3)n2)cc1 [MY-8, N-(3-(azepan-1-yl)propyl)-6-(3-(4-methoxyphenyl)-1,2,4-oxadiazol-5-yl)pyridazin-3-amine] | decreased upon treatment with MY-8 in a dose-dependent fashion | clear decreases of mRNA level | clear decreases of mRNA level | decreased as early as 24 h | significant inhibition of NBEB cell growth |  | 
COc1ccc(-c2noc(-c3ccc(NCCCN4CCCC4)nn3)n2)cc1 [MY-1, 6-(3-(4-methoxyphenyl)-1,2,4-oxadiazol-5-yl)-N-(3-(pyrrolidin-1-yl)propyl)pyridazin-3-amine] |  |  |  |  |  | not significantly changed | increase of SPR binding signals
